T/C data for 19 compounds are collected here from PubChem BioAssay AID330 (DTP/NCI, 2004).

The test system of this assay is P388 leukemia ip, CD2F1 mice, survival T/C. Description: NCI In Vivo Anticancer Drug Screen. Data for tumor model P388 Leukemia (intraperitoneal) in CD2F1 (CDF1) mice. The note with it: endpoint: median survival time, higher = longer survival. Put shortly: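 Mice carrying the transplanted tumor received test compound or vehicle. Survival was recorded in each group, and the value is the treated-group measurement divided by that of the vehicle-treated control group.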

The mark [1] stands for this setting: dose: 50.0 mg/kg/injection, schedule: Q01DX005 (ip), vehicle: Klucel (hydroxypropylcellulose) (HPC).
Where [2] appears, read: dose: 100.0 mg/kg/injection, schedule: Q01DX005 (ip), vehicle: Klucel (hydroxypropylcellulose) (HPC).
Setting [3] is: dose: 200.0 mg/kg/injection, schedule: Q01DX005 (ip), vehicle: Klucel (hydroxypropylcellulose) (HPC).
The mark [4] stands for this setting: dose: 100.0 mg/kg/injection, schedule: Q04DX003 (ip), vehicle: Klucel (hydroxypropylcellulose) (HPC).
[5] abbreviates: dose: 50.0 mg/kg/injection, schedule: Q01DX009 (ip), vehicle: saline with Tween-80.
Setting [6] is: dose: 100.0 mg/kg/injection, schedule: Q01DX009 (ip), vehicle: saline with Tween-80.
Where [7] appears, read: dose: 50.0 mg/kg/injection, schedule: Q04DX003 (ip), vehicle: saline with Tween-80.

Where “and” joins values, the source holds several entries; their conditions need not be identical. Identical values can stand only once. Toxic doses and inconclusive results are not listed. Peptide text beside a SMILES is read from it.

As to `Cc1ccc(OP(=O)(Oc2ccc(C)cc2)Oc2ccc(C)cc2)cc1.Cc1ccc(OP(=O)(Oc2ccc(C)cc2)Oc2ccc(C)cc2)cc1.Cc1ccc(OP(=O)(Oc2ccc(C)cc2)Oc2ccc(C)cc2)cc1.Cc1ccc(OP(=O)(Oc2ccc(C)cc2)Oc2ccc(C)cc2)cc1.[Cr+3].[O-][Cl+3]([O-])([O-])O`, the T/C is 100 % of control (dose: 100.0 mg/kg/injection, schedule: Q01DX001 (ip), vehicle: Klucel (hydroxypropylcellulose) (HPC)); 96 % of control (dose: 200.0 mg/kg/injection, schedule: Q01DX001 (ip), vehicle: Klucel (hydroxypropylcellulose) (HPC)); 89 % of control (dose: 400.0 mg/kg/injection, schedule: Q01DX001 (ip), vehicle: Klucel (hydroxypropylcellulose) (HPC)).

In the case of `C(=Nc1ccccc1)C1=C(Nc2ccccc2)CCC1`, the T/C is 100 % of control under setting [1], 100 % of control under setting [2] and 106 % of control under setting [3].

As to `COC(OC)C(C(=O)c1ccc(OCc2ccccc2)cc1O)c1cc2c(cc1OCc1ccccc1)OCO2` (centres undefined), the T/C reads like this: under setting [4], 96 % of control; (dose: 200.0 mg/kg/injection, schedule: Q04DX003 (ip), vehicle: Klucel (hydroxypropylcellulose) (HPC)) 101 % of control; (dose: 400.0 mg/kg/injection, schedule: Q04DX003 (ip), vehicle: Klucel (hydroxypropylcellulose) (HPC)) 98 % of control.

For `NC(=O)N/N=C1/CCC(O)CC1CC(=O)O` (centres undefined), the T/C by setting is: under setting [1], 103 % of control; under setting [2], 100 % of control; under setting [3], 97 % of control.

In the case of `COC1/C=C/OC2(C)Oc3c(C)c(O)c4c(O)c(c(/C=N\N(C)C56CC7CC(CC(C7)C5)C6)c(O)c4c3C2=O)NC(=O)C(C)=C/C=C/C(C)C(O)C(C)C(O)C(C)C(OC(C)=O)C1C` (centres undefined), the T/C (dose: 60.0 mg/kg/injection, schedule: Q01DX005 (ip), vehicle: Klucel (hydroxypropylcellulose) (HPC)) was 93 % of control; the T/C (dose: 120.0 mg/kg/injection, schedule: Q01DX005 (ip), vehicle: Klucel (hydroxypropylcellulose) (HPC)) is 96 % of control; the T/C (dose: 240.0 mg/kg/injection, schedule: Q01DX005 (ip), vehicle: Klucel (hydroxypropylcellulose) (HPC)) is 102 % of control.

Regarding `CCB1OCC(C2OC(=O)C3OB(CC)OC32)O1` (centres undefined), the T/C reads like this: (dose: 50.0 mg/kg/injection, schedule: Q01DX005 (ip), vehicle: saline + Tween-80 + alcohol) 101 % of control; (dose: 100.0 mg/kg/injection, schedule: Q01DX005 (ip), vehicle: saline + Tween-80 + alcohol) 101 % of control; (dose: 200.0 mg/kg/injection, schedule: Q01DX005 (ip), vehicle: saline + Tween-80 + alcohol) 95 % of control.

With `COc1ccc2cc1Oc1ccc(cc1)CC1c3cc(c(OC)cc3CCN1C)Oc1c(O)c(OC)cc3c1C(C2)N(C)CC3` (centres undefined), the T/C runs as follows: (dose: 15.0 mg/kg/injection, schedule: Q01DX009 (ip), vehicle: Klucel (hydroxypropylcellulose) (HPC)) 95 % of control; (dose: 30.0 mg/kg/injection, schedule: Q01DX009 (ip), vehicle: Klucel (hydroxypropylcellulose) (HPC)) 93 % of control; (dose: 60.0 mg/kg/injection, schedule: Q01DX009 (ip), vehicle: Klucel (hydroxypropylcellulose) (HPC)) 97 % of control.

Take `CCCCCCCCCCCCCCCC(=O)NCC(=O)NC1C(CO)OC(Nc2ncnc3nc[nH]c23)C(O)C1O` (centres undefined): the T/C is, setting by setting: (dose: 0.13 mg/kg/injection, schedule: Q01DX009 (ip), vehicle: water) 110 % of control; (dose: 0.25 mg/kg/injection, schedule: Q01DX009 (ip), vehicle: water) 107 % of control; (dose: 1.0 mg/kg/injection, schedule: Q01DX009 (ip), vehicle: water) 96 % of control; (dose: 2.0 mg/kg/injection, schedule: Q01DX009 (ip), vehicle: water) 98 % of control.

As to `CN1CC(=O)NC2C(=CN(Cc3ccccc3)c3ccccc32)C1=O` (centres undefined), the T/C runs as follows: (dose: 60.0 mg/kg/injection, schedule: Q01DX005 (ip), vehicle: saline with Tween-80) 100 % of control; (dose: 120.0 mg/kg/injection, schedule: Q01DX005 (ip), vehicle: saline with Tween-80) 90 % of control; (dose: 240.0 mg/kg/injection, schedule: Q01DX005 (ip), vehicle: saline with Tween-80) 90 % of control.

Regarding `O=C(CC(O)c1ccccc1)Sc1ccccc1` (centres undefined), the T/C is, setting by setting: (dose: 25.0 mg/kg/injection, schedule: Q04DX003 (ip), vehicle: Klucel (hydroxypropylcellulose) (HPC)) 100 % of control; (dose: 50.0 mg/kg/injection, schedule: Q04DX003 (ip), vehicle: Klucel (hydroxypropylcellulose) (HPC)) 100 % of control; under setting [4], 95 % of control.

With `CC(Oc1cc(Cl)c(Cl)cc1Cl)C(=O)NC(C(=O)O)C(C)C` (centres undefined), the T/C was 97 % of control and 100 % of control (dose: 50.0 mg/kg/injection, schedule: Q01DX005 (ip), vehicle: saline with Tween-80); 91 % of control and 106 % of control (dose: 100.0 mg/kg/injection, schedule: Q01DX005 (ip), vehicle: saline with Tween-80); 97 % of control and 111 % of control (dose: 200.0 mg/kg/injection, schedule: Q01DX005 (ip), vehicle: saline with Tween-80).

Turning to `CC1(C)CCCc2conc21`, the T/C under setting [5] was 96 % of control; the T/C under setting [6] was 101 % of control; the T/C (dose: 200.0 mg/kg/injection, schedule: Q01DX009 (ip), vehicle: saline with Tween-80) was 96 % of control.

With `CN1C(=O)/C(=C2\Sc3ccccc3NC2=O)SC1=S`, the T/C runs as follows: under setting [7], 92 % of control; (dose: 100.0 mg/kg/injection, schedule: Q04DX003 (ip), vehicle: saline with Tween-80) 95 % of control; (dose: 200.0 mg/kg/injection, schedule: Q04DX003 (ip), vehicle: saline with Tween-80) 102 % of control.

`COc1cc(CC2c3cc(OC)c(OC)cc3CCN2C)c(Oc2cc3c(cc2OC)-c2c(OC)c(OC)c(OC)c4c2C(C3)N(C)CC4)cc1OC` (centres undefined): the T/C (dose: 37.5 mg/kg/injection, schedule: Q01DX009 (ip), vehicle: Klucel (hydroxypropylcellulose) (HPC)) was 102 % of control; the T/C (dose: 75.0 mg/kg/injection, schedule: Q01DX009 (ip), vehicle: Klucel (hydroxypropylcellulose) (HPC)) is 88 % of control; the T/C (dose: 150.0 mg/kg/injection, schedule: Q01DX009 (ip), vehicle: Klucel (hydroxypropylcellulose) (HPC)) was 94 % of control.

As for `CCOC(=O)/C=C(\C)NC1CC(OC2CC(O)(C(=O)CO)Cc3c(O)c4c(c(O)c32)C(=O)c2c(OC)cccc2C4=O)OC(C)C1O` (centres undefined), the T/C was 119 % of control (dose: 6.25 mg/kg/injection, schedule: Q04DX003 (ip), vehicle: saline with Tween-80); 113 % of control (dose: 12.5 mg/kg/injection, schedule: Q04DX003 (ip), vehicle: saline with Tween-80); 172 % of control under setting [7].

On to `CCCCC(CCC)(CCC)CCN`, for which the T/C by setting is: (dose: 2.5 mg/kg/injection, schedule: Q01DX009 (ip), vehicle: suspension in saline) 104 % of control and 105 % of control; (dose: 5.0 mg/kg/injection, schedule: Q01DX009 (ip), vehicle: suspension in saline) 100 % of control and 105 % of control; (dose: 10.0 mg/kg/injection, schedule: Q01DX009 (ip), vehicle: suspension in saline) 122 % of control and 97 % of control; (dose: 20.0 mg/kg/injection, schedule: Q01DX009 (ip), vehicle: suspension in saline) 106 % of control.

For the compound `O=C(CCl)NCCCl`, the T/C reads like this: (dose: 50.0 mg/kg/injection, schedule: Q01DX009 (ip), vehicle: saline) 97 % of control; (dose: 100.0 mg/kg/injection, schedule: Q01DX009 (ip), vehicle: saline) 100 % of control.

Take `COc1ccc(C(C)(C)CC(C)(C)C)cc1`: the T/C runs as follows: (dose: 12.5 mg/kg/injection, schedule: Q01DX009 (ip), vehicle: saline with Tween-80) 101 % of control; (dose: 25.0 mg/kg/injection, schedule: Q01DX009 (ip), vehicle: saline with Tween-80) 104 % of control; under setting [5], 104 % of control; under setting [6], 109 % of control.

In the case of `NC(CCC(=O)O)C(=O)NC(Cc1ccc(O)cc1)C(=O)NC(CCC(=O)O)C(=O)O` (stereo not drawn) (H-Glu-Tyr-Glu-OH; configuration not given here), the T/C reads like this: under setting [1], 93 % of control; under setting [2], 100 % of control; under setting [3], 98 % of control.
